According to US8952169B2 (Genentech, Inc., priority 2012, dated 2015):
pIC50: −log10 of the molar value.

Experiments:
[1] = target: T1, hNav1.7 (Homo sapiens (Human), UniProt Q15858); test: Tritiated aryl sulfonamide binding to membranes from cells expressing hNav1.7 and the β1 subunit (competitive binding); details: read-out: NaV1.7 395 Memb Binding (IC50)
In short: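 Competitive displacement of 100 μM [3H]-labelled tritiated aryl sulfonamide from hNav1.7/β1 membranes, 18 h at room temperature in 100 mM NaCl, 20 mM Tris HCl pH 7.4. Non-specific binding defined with 1 μM unlabelled compound. Filter-bound radioactivity measured by liquid scintillation counting.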

[2] = target: T1, hNav1.7; test: Patch voltage clamp electrophysiology (PatchXpress), HEK-293 cells, inactivated state block; type: cell-based; details: read-out: EP_PX 293 hNav1.7 (IC50)
[3] = membranes with hNav1.7 and β1 subunit, [3H]compound displacement, 18 h, room temperature
[4] = HEK-293 cells, β1 coexpressed, inactivated state, holding −60 mV

T1 sequence (Q15858 whole entry, looked up): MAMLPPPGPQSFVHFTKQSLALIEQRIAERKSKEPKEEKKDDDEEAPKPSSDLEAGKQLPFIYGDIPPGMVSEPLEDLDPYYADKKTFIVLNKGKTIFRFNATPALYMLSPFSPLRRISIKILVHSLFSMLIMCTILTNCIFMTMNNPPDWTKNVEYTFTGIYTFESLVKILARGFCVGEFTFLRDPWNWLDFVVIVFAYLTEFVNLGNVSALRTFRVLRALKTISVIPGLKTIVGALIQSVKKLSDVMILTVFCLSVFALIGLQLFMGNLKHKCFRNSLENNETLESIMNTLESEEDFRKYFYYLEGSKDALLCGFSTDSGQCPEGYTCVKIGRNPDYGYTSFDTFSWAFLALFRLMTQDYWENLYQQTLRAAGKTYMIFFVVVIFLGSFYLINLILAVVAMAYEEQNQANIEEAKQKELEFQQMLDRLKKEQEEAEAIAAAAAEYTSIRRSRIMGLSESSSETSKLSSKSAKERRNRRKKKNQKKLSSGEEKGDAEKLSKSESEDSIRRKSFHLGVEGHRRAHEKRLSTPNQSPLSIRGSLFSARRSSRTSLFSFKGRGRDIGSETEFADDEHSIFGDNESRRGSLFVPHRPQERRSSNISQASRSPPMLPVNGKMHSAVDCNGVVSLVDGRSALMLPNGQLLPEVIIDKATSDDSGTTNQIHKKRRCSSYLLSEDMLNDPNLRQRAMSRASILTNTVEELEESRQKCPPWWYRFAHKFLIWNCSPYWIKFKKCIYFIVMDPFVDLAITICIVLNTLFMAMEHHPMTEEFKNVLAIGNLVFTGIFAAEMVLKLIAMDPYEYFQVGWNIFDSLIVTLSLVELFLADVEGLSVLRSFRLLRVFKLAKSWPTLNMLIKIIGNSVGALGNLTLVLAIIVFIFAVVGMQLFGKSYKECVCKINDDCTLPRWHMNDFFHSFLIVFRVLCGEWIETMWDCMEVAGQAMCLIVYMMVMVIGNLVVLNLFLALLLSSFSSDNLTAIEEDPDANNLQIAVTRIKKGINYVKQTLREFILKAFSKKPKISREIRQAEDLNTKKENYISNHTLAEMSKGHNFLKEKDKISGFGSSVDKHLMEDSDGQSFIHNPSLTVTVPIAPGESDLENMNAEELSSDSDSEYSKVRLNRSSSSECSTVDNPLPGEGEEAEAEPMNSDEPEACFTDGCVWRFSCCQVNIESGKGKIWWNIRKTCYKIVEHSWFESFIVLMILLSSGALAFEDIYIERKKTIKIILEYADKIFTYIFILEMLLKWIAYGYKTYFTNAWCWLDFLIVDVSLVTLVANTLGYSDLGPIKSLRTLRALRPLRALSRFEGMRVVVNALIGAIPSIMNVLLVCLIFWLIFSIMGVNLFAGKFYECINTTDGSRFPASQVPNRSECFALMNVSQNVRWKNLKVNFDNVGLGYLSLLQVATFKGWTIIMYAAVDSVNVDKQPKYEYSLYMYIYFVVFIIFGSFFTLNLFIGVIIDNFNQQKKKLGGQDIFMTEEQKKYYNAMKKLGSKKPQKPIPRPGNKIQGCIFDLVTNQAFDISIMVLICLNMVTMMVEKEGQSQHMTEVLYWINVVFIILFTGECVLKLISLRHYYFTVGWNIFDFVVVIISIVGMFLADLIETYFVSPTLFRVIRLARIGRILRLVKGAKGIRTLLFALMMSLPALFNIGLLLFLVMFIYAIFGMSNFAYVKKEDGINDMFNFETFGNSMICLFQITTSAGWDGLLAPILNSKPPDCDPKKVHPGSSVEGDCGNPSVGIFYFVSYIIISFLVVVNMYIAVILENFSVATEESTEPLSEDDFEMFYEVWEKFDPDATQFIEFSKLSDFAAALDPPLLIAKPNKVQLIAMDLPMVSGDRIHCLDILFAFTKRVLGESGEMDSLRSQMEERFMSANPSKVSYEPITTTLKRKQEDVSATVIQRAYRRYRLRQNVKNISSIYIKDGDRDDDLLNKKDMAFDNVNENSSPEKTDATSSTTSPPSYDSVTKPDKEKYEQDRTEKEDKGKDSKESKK
T1 sequence (Q07699 whole entry partner, looked up): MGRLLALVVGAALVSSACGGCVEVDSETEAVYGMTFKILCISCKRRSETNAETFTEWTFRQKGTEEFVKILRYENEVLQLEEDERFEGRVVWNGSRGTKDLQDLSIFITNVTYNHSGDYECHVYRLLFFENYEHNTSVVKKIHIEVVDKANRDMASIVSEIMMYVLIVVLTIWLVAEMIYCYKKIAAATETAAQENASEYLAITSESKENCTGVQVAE

Molecule	pIC50 [1, 3]	pIC50 [2, 4]	pIC50 [1]	pIC50 [2]
CS(=O)(=O)NC(=O)c1cc(C2CC2)c(O[C@H]2C3CC4CC2C[C@@](Cl)(C4)C3)cc1F	8.05	8.15	–	–
O=C(NS(=O)(=O)N1CCC1)c1cc(C2CC2(F)F)c(OCC23CC4CC(CC(C4)C2)C3)cc1F (stereo not drawn)	8.30	6.47	–	–
O=C(NS(=O)(=O)C1CC1)c1cc(C2CC2(F)F)c(OCC23CC4CC(CC(C4)C2)C3)cc1F (stereo not drawn)	8.40	6.85	–	–
CC1(F)CCC(COc2cc(F)c(C(=O)NS(=O)(=O)N3CCC3)cc2C2CC2)CC1 (stereo not drawn)	7.66	7.46	–	–
CNS(=O)(=O)NC(=O)c1cc(C2CC2)c(OCC2CN(C(c3ccccc3)c3ccccc3)C2)cc1F	7.47	6.22	–	–
O=C(NS(=O)(=O)N1CC(F)C1)c1cc(C2CC2)c(O[C@H]2C3CC4CC2C[C@](Cl)(C4)C3)cc1F	7.70	5.92	–	–
CS(=O)(=O)NC(=O)c1cc(C2CC2)c(OCC2CCC3CC3C2)cc1F (stereo not drawn)	8.05	8.70	–	–
O=C(NS(=O)(=O)N1CC(F)C1)c1cc(C2CC2)c(O[C@H]2C3CC4CC2C[C@@](Cl)(C4)C3)cc1F	7.55	6.05	–	–
O=C(NS(=O)(=O)N1CC(F)C1)c1cc(C2CC2)c(OCC2CCC3CC3C2)cc1F (stereo not drawn)	7.96	6.28	–	–
CC1CCCC(C)C1COc1cc(F)c(C(=O)NS(=O)(=O)N2CCC2)cc1C1CC1 (stereo not drawn)	7.22	6.41	–	–
CC1CCCC(C)C1COc1cc(F)c(C(=O)NS(=O)(=O)N2CCC2)cc1Cl (stereo not drawn)	7.60	7.13	–	–
O=C(NS(=O)(=O)N1CCC1)c1cc(C2CC2)c(OCC2CCCC(F)(F)C2)cc1F (stereo not drawn)	7.66	7.37	–	–
CNS(=O)(=O)NC(=O)c1cc(C2CC2)c(OCC2CCCC(F)(F)C2)cc1F (stereo not drawn)	7.18	6.03	–	–
CS(=O)(=O)NC(=O)c1cc(C2CC2)c(OCC2CCCC(F)(F)C2)cc1F (stereo not drawn)	7.57	6.38	–	–
CCS(=O)(=O)NC(=O)c1cc(C2CC2)c(OCC2CCC3(CC2)CC3)cc1F	8.52	7.64	–	–
CC1CCC(COc2cc(F)c(C(=O)NS(C)(=O)=O)cc2C2CC2)CC1 (stereo not drawn)	8.10	7.55	–	–
O=C(NS(=O)(=O)N1CCC1)c1cc(C2CC2)c(OCC2CC=C(C3CC3)CC2)cc1F (stereo not drawn)	8.22	8.00	–	–
CO[C@]12CC3CC(C1)[C@@H](Oc1cc(F)c(C(=O)NS(=O)(=O)N4CCC4)cc1C1CC1)C(C3)C2	7.00	6.72	–	–
CC1(COc2cc(F)c(C(=O)NS(=O)(=O)C3CC3)cc2C2CC2)CC=CCC1 (stereo not drawn)	8.30	7.92	–	–
CC1(COc2cc(F)c(C(=O)NS(=O)(=O)N3CCC3)cc2C2CC2)CCC2(CC1)CC2(F)F (stereo not drawn)	7.96	7.33	–	–
CC1(COc2cc(F)c(C(=O)NS(C)(=O)=O)cc2C2CC2)CCC(C(F)(F)F)CC1 (stereo not drawn)	8.40	7.23	–	–
CCc1cc(C(=O)NS(=O)(=O)N2CCC2)c(F)cc1OCC12CC3CC(CC(C3)C1)C2	8.30	8.48	–	–
O=C(NS(=O)(=O)CCO)c1cc(C2CC2)c(OCC23CC4CC(CC(C4)C2)C3)cc1F	8.15	8.34	–	–
CN(C)S(=O)(=O)NC(=O)c1cc(Cl)c(OCC23CC4CC(CC(Cl)(C4)C2)C3)cc1F	6.80	7.07	–	–
CN(C)S(=O)(=O)NC(=O)c1cc(Cl)c(OCC2(C(F)(F)F)CCC2)cc1F	6.53	7.38	–	–
4-(adamantan-1-ylmethoxy)-N-(azetidin-1-ylsulfonyl)-3-chloro-5-fluorobenzamide [Example 416]	8.30	8.05	–	–
5-chloro-4-(cyclohexylmethoxy)-2-fluoro-N-(methylsulfonyl)benzamide [Example 21]	5.97	6.97	–	–

Molecule	pIC50 [1, 3]	pIC50 [2, 4]	pIC50 [1]	pIC50 [2]
O=C(NS(=O)(=O)N1CCC1)c1cc(C2CC2)c(OCC2CN(C(c3ccccc3)c3ccccc3)C2)cc1F (racemic)	7.92	6.46	–	–
O=C(NS(=O)(=O)C1CC1)c1cc(C2CC2)c(OCC2CN(C(c3ccccc3)c3ccccc3)C2)cc1F (single isomer, unassigned)	8.30	7.09	–	–
CC12CC3CC(C)(C1)CC(COc1cc(F)c(C(=O)NS(C)(=O)=O)cc1Cl)(C3)C2 [Example 23]	7.89	7.64	–	–
CC1(C)[C@@H]2CC[C@@]1(C)[C@@H](Oc1cc(F)c(C(=O)NS(C)(=O)=O)cc1Cl)C2 [Example 25]	6.66	7.57	–	–
CC(Oc1cc(F)c(C(=O)NS(C)(=O)=O)cc1Cl)C12CC3CC(CC(C3)C1)C2 (stereo not drawn) [Example 31]	5.85	6.84	–	–
O=C(NS(=O)(=O)C1CC1)c1cc(Cl)c(OC2CCC(Cl)(Cl)CC2)cc1F [Example 293]	6.74	6.85	–	–
CO[C@@H]1CCN(S(=O)(=O)NC(=O)c2cc(C3CC3)c(OCC34CC5CC(CC(C5)C3)C4)cc2F)C1 [Example 301]	7.85	6.44	–	–
CC1(OCc2cc(F)c(C(=O)NS(C)(=O)=O)cc2Cl)CCC(F)(F)CC1 [Example 305]	6.51	5.85	–	–
CS(=O)(=O)NC(=O)c1cc(C2CC2)c(O[C@H]2C3CC4CC2C[C@](F)(C4)C3)cc1F [Example 308]	7.70	6.74	–	–
CC1(C)CCC(COc2cc(F)c(C(=O)NS(=O)(=O)N3CCC3)cc2C2CC2)CC1 [Example 309]	–	–	8.22	7.10
CS(=O)(=O)NC(=O)c1cc(C2CC2)c(OCC23CCCCC2C3(F)F)cc1F (stereo not drawn) [Example 310]	7.08	8.00	–	–
COCCS(=O)(=O)NC(=O)c1cc(C2CC2)c(OCC23CCCCC2C3(F)F)cc1F (stereo not drawn) [Example 311]	7.52	7.28	–	–
O=C(NS(=O)(=O)N1CCC1)c1cc(C2CC2)c(COC23CC4CC(CC(C4)C2)C3)cc1F [Example 320]	7.77	6.85	–	–
CS(=O)(=O)NC(=O)c1cc(F)c(OCC23CC4CC(CC(C4)C2)C3)c(Cl)c1 [Example 325]	6.57	5.60	–	–
O=C(NS(=O)(=O)C1CC1)c1cc(C2CC2)c(OCC2(C(F)(F)F)CCC2)cc1F [Example 327]	8.52	7.92	–	–
O=C(NS(=O)(=O)C1CC1)c1cc(Cl)c(OCC2(C(F)(F)F)CCC2)cc1F [Example 328]	7.62	7.15	–	–
O=C(NS(=O)(=O)N1CCC1)c1cc(C2CC2)c(OCC2(C(F)(F)F)CCC2)cc1F [Example 329]	8.40	7.70	–	–
O=C(NS(=O)(=O)N1CCC1)c1cc(Cl)c(OCC2(C(F)(F)F)CCC2)cc1F [Example 330]	7.60	7.04	–	–
CC1(F)CCC(COc2cc(F)c(C(=O)NS(=O)(=O)N3CCC3)cc2Cl)CC1 (stereo not drawn) [Example 331]	6.35	6.15	–	–
O=C(NS(=O)(=O)C1CC1)c1cc(C2CC2)c(OC2C3CC4CC(C3)CC2C4)cc1F (stereo not drawn) [Example 332]	8.40	7.57	–	–
O=C(NS(=O)(=O)C1CC1)c1cc(Cl)c(OC2CCC(F)(F)CC2)cc1F [Example 339]	6.51	5.48	–	–
O=C(NS(=O)(=O)N1CCC1)c1cc(C2CC2)c(OCC2CC23CCCCC3)cc1F (stereo not drawn) [Example 347]	7.85	7.17	–	–
COC(=O)C12CC3C[C@H](C1)C(Oc1cc(F)c(C(=O)NS(C)(=O)=O)cc1Cl)[C@@H](C3)C2 (stereo partly drawn) [Example 353, (1s,3R,4r,5S,7s)-methyl 4-(2-chloro-5-fluoro-4-((methyl-sulfonyl)carbamoyl)-phenoxy)adamantane-1-carboxylate]	6.89	6.62	–	–
CC1(C)CCCC(Oc2cc(F)c(C(=O)NS(=O)(=O)N3CCC3)cc2C2CC2)C1 (stereo not drawn) [Example 357]	7.80	6.92	–	–
CC1(C)CCCC(Oc2cc(F)c(C(=O)NS(C)(=O)=O)cc2C2CC2)C1 (stereo not drawn) [Example 358, 5-cyclopropyl-4-((3,3-dimethylcyclohexyl)oxy)-2-fluoro-N-(methylsulfonyl)benzamide]	7.92	7.21	–	–
CC1CCCCC1COc1cc(F)c(C(=O)NS(=O)(=O)N2CCC2)cc1C1CC1 (stereo not drawn) [Example 372]	8.15	7.96	–	–
O=C(NS(=O)(=O)N1CCC1)c1cc(C2CC2)c(OCC2CC=C(Cl)CC2)cc1F (stereo not drawn) [Example 376]	7.70	7.52	–	–
